Experimental data published in the supplement of paper PMC10307832.

Key:
Assay in all cases: relative viability (nuclei count vs DMSO), 5 days (fraction); higher = more cells survive
Lestaurtinib + Dasatinib = compound: C[C@]12O[C@H](C[C@]1(O)CO)n1c3ccccc3c3c4c(c5c6ccccc6n2c5c31)CNC4=O [Lestaurtinib] + Cc1nc(Nc2ncc(C(=O)Nc3c(C)cccc3Cl)s2)cc(N2CCN(CCO)CC2)n1 [Dasatinib] (partner 0.075 µM)
In short: (§1)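 Dosing by pin tool came one day after lung cancer cell lines were seeded in 1536-well plates, using either one drug or a fixed anchor-drug dose plus five library-drug doses (not always all listed) in √10 steps. After 5 days, nuclei were counted on 4× images. Relative viability is treated-well nuclei count divided by vehicle-well nuclei count, and values are medians of duplicate plates.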

TPCA-1 + Lapatinib = compound: C1=CC(=CC=C1C2=CC(=C(S2)NC(=O)N)C(=O)N)F [TPCA-1] + CS(=O)(=O)CCNCc1ccc(-c2ccc3ncnc(Nc4ccc(OCc5cccc(F)c5)c(Cl)c4)c3c2)o1 [Lapatinib] (partner 2 µM)
In short: as §1

TPCA-1 + Crizotinib = compound: C1=CC(=CC=C1C2=CC(=C(S2)NC(=O)N)C(=O)N)F [TPCA-1] + C[C@@H](Oc1cc(-c2cnn(C3CCNCC3)c2)cnc1N)c1c(Cl)ccc(F)c1Cl [Crizotinib] (partner 1 µM)
In short: as §1

Cell Line	relative viability (Lestaurtinib + Dasatinib; first compound 0.005 µM)	relative viability (Lestaurtinib + Dasatinib; first compound 0.01581 µM)	relative viability (Lestaurtinib + Dasatinib; first compound 0.05 µM)	relative viability (Lestaurtinib + Dasatinib; first compound 0.1581 µM)	relative viability (Lestaurtinib + Dasatinib; first compound 0.5 µM)	relative viability (TPCA-1 + Lapatinib; first compound 0.04 µM)	relative viability (TPCA-1 + Lapatinib; first compound 0.1265 µM)	relative viability (TPCA-1 + Lapatinib; first compound 0.4 µM)	relative viability (TPCA-1 + Lapatinib; first compound 1.265 µM)	relative viability (TPCA-1 + Lapatinib; first compound 4 µM)	relative viability (TPCA-1 + Crizotinib; first compound 0.04 µM)	relative viability (TPCA-1 + Crizotinib; first compound 0.1265 µM)	relative viability (TPCA-1 + Crizotinib; first compound 0.4 µM)	relative viability (TPCA-1 + Crizotinib; first compound 1.265 µM)	relative viability (TPCA-1 + Crizotinib; first compound 4 µM)
NCI-H596	0.669	0.6	0.678	0.694	0.564	1.06	1.08	1.15	1.13	1.07	1.01	1.1	0.522	0.972	1.01
NCI-H1944	0.207	0.23	0.176	0.137	0.147	0.999	0.68	0.838	0.7	0.682	1.18	1.03	1.02	1.02	0.682
LK-2	0.296	0.255	0.241	0.275	0.158	1.11	0.636	0.879	0.874	0.419	0.22	0.229	0.289	0.206	0.313
HCC-15	0.73	0.702	0.485	0.38	0.169	0.942	0.856	0.908	0.819	0.52	0.833	0.81	0.831	0.798	0.563
NCI-H727	0.402	0.285	0.459	0.542	0.231	0.83	0.772	0.694	0.815	0.738	0.82	0.677	1.05	0.64	0.706
HOP-62	0.66	0.721	0.504	0.499	0.241	1.23	0.901	1.02	0.882	0.873	0.974	0.865	0.974	1.05	0.641
NCI-H3122	0.881	0.871	0.869	1.15	0.598	1.03	0.939	0.985	1.05	0.976	0.281	0.268	0.278	0.291	0.223
NCI-H647	0.278	0.147	0.0914	0.0755	0.0624	1.34	0.919	1.06	0.671	0.466	1.24	1.08	1.13	0.882	0.215
NCI-H650	0.405	0.397	0.301	0.315	0.232	1.03	1.05	0.93	0.357	0.487	0.707	0.522	0.688	0.373	0.382
EKVX	0.477	0.735	0.562	0.576	0.373	0.217	0.184	0.241	0.198	0.205	0.979	0.777	1.04	0.97	0.738
NCI-H460	0.505	0.583	0.505	0.388	0.247	1.26	0.982	1.12	0.9	0.335	0.911	0.919	0.889	0.883	0.298
LCLC-97TM1	0.841	0.853	0.629	0.753	0.191	1.47	0.719	1.3	0.852	0.518	0.347	0.325	0.568	0.28	0.15
COR-L23	0.539	0.699	0.296	0.455	0.121	1.09	0.859	0.903	1.09	0.678	0.686	0.666	0.715	0.532	0.323
NCI-H1355	0.639	0.777	0.58	0.495	0.259	1.15	0.879	0.956	0.818	0.719	1.1	1.03	1.11	0.977	0.712
